What was measured:
RIPK2 = molecular target: T1, RIPK2 (Homo sapiens, UniProt O43353); test: RIPK2 Degradation Assay (Nano-Glo HiBiT); assay type: cell-based; conditions: HiBiT-tagged RIPK2 in HEK 293 cells, 18 h
T1 construct: the RIPK2 gene was modified, using CRISPR/Cas9 editing, so the expressed RIPK2 protein included an 11 amino acid HiBiT tag; endogenous in cells; host or cells: clonal HEK 293-derived line, RIPK2 gene edited by CRISPR/Cas9 (heterozygous)
Text: Degradation of RIPK2 protein in human embryonic kidney (HEK 293) cells treated with PROTACs was quantified using the Nano-Glo® HiBiT Lytic Detection System (Promega) in 384 well assay plate format. A clonal HEK 293 derived cell line was first established in which the RIPK2 gene was modified, using CRISPR/Cas9 editing, so the expressed RIPK2 protein included an 11 amino acid HiBiT tag at it's amino-terminus. The cell lines were heterozygotic for the HiBIT modification. Cells were cryopreserved in aliquots in 90% foetal bovine serum (FBS), 10% DMSO and stored at −150° C. 10 mM DMSO stock solutions of PROTACs were prepared and diluted across an 11 concentration, 3 fold increment range, and 25 nL dispensed into a white opaque bottomed 384 well assay plate (Thermofisher) using an acoustic ECHO dispenser (Labcyte). For the assay, a cryopreserved vials of cells was rapidly thawed and suspended in 30 mL of assay medium (FluoroBrite™ DMEM supplemented with 10% heat inactivated FBS, penicillin 50 U/mL and streptomycin 50 ug/mL (Thermofisher)). The cell suspension was centrifuged at 400 g for 5 min and the pellet resuspended in assay medium. 25 μL of cell suspension containing 10,000 cells was dispensed into each well of the assay plate containing the test compounds, which was then incubated for 18 h at 37° C./5% CO2. Control wells were included on each assay plate, with assay medium without cells being the no RIPK2 remaining 100% effect control, and cells treated with DMSO vehicle only, without PROTAC, the 0% effect control. 25 μL of Nano-Glo® HiBiT lysis buffer supplemented with LgBiT protein and Nano-Glo® substrate (Promega) was added to each well and the plate shaken at 500 rpm for 10 min at room temperature. The intensity of luminescence was measured using a PHERAstar microplate reader (BMG Labtech) and the % RIPK2 protein remaining in each well calculated by normalising the raw luminescence value to the above control wells. Parameters corresponding to the potency and efficacy estimates of the PROTACs were obtained from these normalised luminescence values using software (IDBS ActivityBase). These included the DC50 and the Dmax estimates. Two versions of the DC50, called relative DC50 and absolute DC50, were typically generated. These are the inflection point of a fitted 4 parameter sigmoidal response curve and the interpolated concentration of PROTAC corresponding to 50% of the protein being degraded, respectively. The Dmax parameter was the maximum experimentally observed degradation and the asymptote max parameter the fitted response curve asymptote maximum.

[1] = molecular target: T2, IRAK4 (Interleukin 1 Receptor Associated Kinase 4) (Homo sapiens, UniProt Q9NWZ3); test: IRAK4 Degradation Assay (Nano-Glo HiBiT); assay type: cell-based; conditions: HiBiT-tagged IRAK4 in HeLa cells, 18 h
T2 construct: the IRAK4 gene was modified, using CRISPR/Cas9 editing, so the expressed IRAK4 protein included an 11 amino acid HiBiT tag; endogenous in cells; host or cells: clonal HeLa line, IRAK4 gene edited by CRISPR/Cas9 (heterozygous)
T2 sequence (Q9NWZ3 1-460): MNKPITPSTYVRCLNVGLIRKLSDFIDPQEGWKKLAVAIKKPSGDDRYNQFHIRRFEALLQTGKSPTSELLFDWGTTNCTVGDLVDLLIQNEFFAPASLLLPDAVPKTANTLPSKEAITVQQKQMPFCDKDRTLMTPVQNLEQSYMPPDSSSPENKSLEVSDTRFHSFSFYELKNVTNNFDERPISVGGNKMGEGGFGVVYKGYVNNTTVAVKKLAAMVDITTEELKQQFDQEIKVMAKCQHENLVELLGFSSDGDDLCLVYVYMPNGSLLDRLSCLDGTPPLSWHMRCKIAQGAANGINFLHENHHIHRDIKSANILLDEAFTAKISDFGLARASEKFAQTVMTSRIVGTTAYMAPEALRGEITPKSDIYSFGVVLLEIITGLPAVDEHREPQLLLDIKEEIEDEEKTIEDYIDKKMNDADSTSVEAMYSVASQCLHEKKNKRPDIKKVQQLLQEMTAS
Text: Degradation of IRAK4 (Interleukin 1 Receptor Associated Kinase 4) protein in Hela cells treated with PROTACs was quantified using the Nano-Glo® HiBiT Lytic Detection System (Promega) in 384 well assay plate format. A clonal HeLa cell line was first established in which the IRAK4 gene was modified, using CRISPR/Cas9 editing, so the expressed IRAK4 protein included an 11 amino acid HiBiT tag at it's amino-terminus. The cell lines were heterozygotic for the HiBiT modification. Cells were cryopreserved in aliquots in 90% foetal bovine serum (FBS), 10% DMSO and stored at −150° C. 10 mM DMSO stock solutions of PROTACs were prepared and diluted across an 11 concentration, 3 fold increment range, and 25 nL dispensed into a white opaque bottomed 384 well assay plate (Thermofisher) using an acoustic ECHO dispenser (Labcyte). […] The intensity of luminescence was measured using a PHERAstar microplate reader (BMG Labtech) and the % IRAK4 protein remaining in each well calculated by normalising the raw luminescence value to the above control wells. Parameters corresponding to the potency and efficacy estimates of the PROTACs were obtained from these normalised luminescence values using software (IDBS ActivityBase). […]

T1 sequence (O43353 whole entry): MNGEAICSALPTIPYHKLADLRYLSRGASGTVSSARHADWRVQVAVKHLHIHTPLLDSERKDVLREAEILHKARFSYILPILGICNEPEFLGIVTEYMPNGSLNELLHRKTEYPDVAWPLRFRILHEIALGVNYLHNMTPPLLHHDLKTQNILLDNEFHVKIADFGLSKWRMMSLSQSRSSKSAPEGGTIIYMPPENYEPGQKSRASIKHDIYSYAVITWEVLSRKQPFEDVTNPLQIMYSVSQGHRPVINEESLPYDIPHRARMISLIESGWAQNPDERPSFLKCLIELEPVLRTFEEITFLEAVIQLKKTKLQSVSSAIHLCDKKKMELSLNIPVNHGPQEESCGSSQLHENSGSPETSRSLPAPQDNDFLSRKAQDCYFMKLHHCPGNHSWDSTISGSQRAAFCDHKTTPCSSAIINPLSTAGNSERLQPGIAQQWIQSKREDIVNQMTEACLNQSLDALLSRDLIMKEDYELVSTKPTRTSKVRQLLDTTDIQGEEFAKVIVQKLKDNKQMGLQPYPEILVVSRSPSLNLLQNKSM

Mean asymptote max (%) (RIPK2)	mean relative pDC50 (RIPK2)	mean asymptote max [1] [%]	mean relative pDC50 [1]	SMILES
96	8.5	–	–	CC(C)(C)S(=O)(=O)c1cc2c(Nc3ccc4scnc4c3)ccnc2cc1OCCCCCCCC(=O)N1CCC(n2ccc3c(N4CCC(=O)NC4=O)cccc32)CC1 [Example R1, 1-(1-(1-(8-((4-(Benzo[d]thiazol-5-ylamino)-6-(tert-butylsulfonyl)quinolin-7-yl)oxy)octanoyl)piperidin-4-yl)-1H-indol-4-yl)dihydropyrimidine-2,4(1H,3H)-dione]
88	8.5	–	–	CC(C)(C)S(=O)(=O)c1cc2c(Nc3ccc4scnc4c3)ccnc2cc1OCCCN1CCC(c2cnc(C(=O)N3CCC(n4ccc5c(N6CCC(=O)NC6=O)cccc54)CC3)cn2)CC1.O=CO [Example R2, 1-(1-(1-(5-(1-(3-((4-(Benzo[d]thiazol-5-ylamino)-6-(tert-butylsulfonyl)quinolin-7-yl)oxy)propyl)piperidin-4-yl)pyrazine-2-carbonyl)piperidin-4-yl)-1H-indol-4-yl)dihydropyrimidine-2,4(1H,3H)-dione formate]
92	8.3	–	–	CC(C)n1ccc2c(N3CCC(=O)NC3=O)cc(C(=O)NCCOCCOCCOc3cc4nccc(Nc5ccc6scnc6c5)c4cc3S(=O)(=O)C(C)(C)C)cc21 [Example R3, N-(2-(2-(2-((4-(Benzo[d]thiazol-5-ylamino)-6-(tert-butylsulfonyl)quinolin-7-yl)oxy)ethoxy)ethoxy)ethyl)-4-(2,4-dioxotetrahydropyrimidin-1(2H)-yl)-1-isopropyl-1H-indole-6-carboxamide]
–	–	96	8.1	CC(C)n1ccc2c(N3CCC(=O)NC3=O)cc(C(=O)NCCOCCOCCN(C)C(=O)c3ccc(-n4cc(NC(=O)c5coc(-c6ccnc(NCC7CC7)c6)n5)c(C(F)F)n4)cc3)cc21 [Example I1, 2-(2-((Cyclopropylmethyl)amino)pyridin-4-yl)-N-(3-(difluoromethyl)-1-(4-((2-(2-(2-(4-(2,4-dioxotetrahydropyrimidin-1(2H)-yl)-1-isopropyl-1H-indole-6-carboxamido)ethoxy)ethoxy)ethyl)(methyl)carbamoyl)phenyl)-1H-pyrazol-4-yl)oxazole-4-carboxamide]

— patent US20250205344A1, “2,4-DIOXOTETRAHYDROPYRIMIDINYL DERATIVES AS DEGRONS IN PROTACS” (GLAXOSMITHKLINE INTELLECTUAL PROPERTY DEVELOPMENT LIMITED, priority 2022, published 2025)
